Experimental data taken from patent US7115622B2, “Amido ether substituted imidazoquinolines” (3M Innovative Properties Company, priority 2000, dated 2006).

Experiments:
interferon (α) = assay: Cytokine Induction in Human Cells: interferon induction in PBMC; type: cell-based; set-up: key to Lowest Effective Concentration (μM) Interferon: *: no induction was seen at any of the tested concentrations; generally the highest concentration tested was 10 or 30 μM; details: 18 to 24 hours incubation, tested 30–0.014 μM, ELISA; for minimal effective concentration: read-out: Lowest Effective Concentration (μM) Interferon
Text: (§1) An in vitro human blood cell system is used to assess cytokine induction. Activity is based on the measurement of interferon and tumor necrosis factor (α) (IFN and TNF, respectively) secreted into culture media as described by Testerman et. al. In “Cytokine Induction by the Immunomodulators Imiquimod and S-27609”, Journal of Leukocyte Biology, 58, 365–372 (September, 1995).
(§2) Whole blood from healthy human donors is collected by venipuncture into EDTA vacutainer tubes. Peripheral blood mononuclear cells (PBMC) are separated from whole blood by density gradient centrifugation using Histopaque®-1077. Blood is diluted 1:1 with Dulbecco's Phosphate Buffered Saline (DPBS) or Hank's Balanced Salts Solution (HBSS). The PBMC layer is collected and washed twice with DPBS or HBSS and resuspended at 4×10^6 cells/mL in RPMI complete. The PBMC suspension is added to 48 well flat bottom sterile tissue culture plates (Costar, Cambridge, Mass. or Becton Dickinson Labware, Lincoln Park, N.J.) containing an equal volume of RPMI complete media containing test compound.
(§3) The compounds are solubilized in dimethyl sulfoxide (DMSO). The DMSO concentration should not exceed a final concentration of 1% for addition to the culture wells. The compounds are generally tested at concentrations ranging from 30–0.014 μM.
(§4) The solution of test compound is added at 60 μM to the first well containing RPMI complete and serial 3 fold dilutions are made in the wells. The PBMC suspension is then added to the wells in an equal volume, bringing the test compound concentrations to the desired range (30–0.014 μM). The final concentration of PBMC suspension is 2×10^6 cells/mL. The plates are covered with sterile plastic lids, mixed gently and then incubated for 18 to 24 hours at 37° C. in a 5% carbon dioxide atmosphere.
(§5) Following incubation the plates are centrifuged for 10 minutes at 1000 rpm (˜200×g) at 4° C. The cell-free culture supernatant is removed with a sterile polypropylene pipet and transferred to sterile polypropylene tubes. Samples are maintained at −30 to −70° C. until analysis. The samples are analyzed for interferon (α) by ELISA and for tumor necrosis factor (α) by ELISA or IGEN Assay
Interferon (α) and Tumor Necrosis Factor (α) Analysis by ELISA Interferon (α) concentration is determined by ELISA using a Human Multi-Species kit from PBL Biomedical Laboratories, New Brunswick, N.J. Results are expressed in pg/mL.
(§6) The table below lists the lowest concentration found to induce interferon and the lowest concentration found to induce tumor necrosis factor for each compound.

[1] = tested on: tumor necrosis factor (α); assay: Cytokine Induction in Human Cells: tumor necrosis factor induction in PBMC; type: cell-based; set-up: key to Lowest Effective Concentration (μM) Tumor Necrosis Factor: *: no induction was seen at any of the tested concentrations; generally the highest concentration tested was 10 or 30 μM; details: 18 to 24 hours incubation, tested 30–0.014 μM, ELISA or IGEN assay; for minimal effective concentration: read-out: Lowest Effective Concentration (μM) Tumor Necrosis Factor
Text: as §1, §2, §3, §4, §5
Tumor necrosis factor (α) (TNF) concentration is determined using ELISA kits available from Biosource International, Camarillo, Calif. Alternately, the TNF concentration can be determined by Origen® M-Series Immunoassay and read on an IGEN M-8 analyzer from IGEN International, Gaithersburg, Md. The immunoassay uses a human TNF capture and detection antibody pair from Biosource International, Camarillo, Calif. Results are expressed in pg/mL.
as §6

Row | Compound | minimal effective concentration (interferon (α)) [µM] | minimal effective concentration [1] [µM] | Lowest Effective Concentration (μM) Interferon (interferon (α)) | Lowest Effective Concentration (μM) Tumor Necrosis Factor [1]
1 | CCC(COCCC1CCN(C(=O)Cc2ccccc2)CC1)n1cnc2c(N)nc3ccccc3c21 (stereo not drawn) [Example 39] | 1 | 10 |  | 
2 | CCC(COCCC1CCN(C(=O)c2ccc(OC(F)(F)F)cc2)CC1)n1cnc2c(N)nc3ccccc3c21 (stereo not drawn) [Example 51] | 10 | 10 |  | 
3 | CCCCc1nc2c(N)nc3ccccc3c2n1CCOCCNC(=O)Cc1ccccc1 [Example 20] | 0.1 | 10 |  | 
4 | CCC(COCCC1CCN(C(=O)CCc2ccccc2)CC1)n1cnc2c(N)nc3ccccc3c21 (stereo not drawn) [Example 43] | 1 | 10 |  | 
5 | CCC(COCCC1CCN(C(=O)c2cccc(C#N)c2)CC1)n1cnc2c(N)nc3ccccc3c21 (stereo not drawn) [Example 42] | 1 | 1 |  | 
6 | CCC(COCCC1CCN(C(=O)c2ccc(Cl)nc2)CC1)n1cnc2c(N)nc3ccccc3c21 (stereo not drawn) [Example 45] | 0.1 | 1 |  | 
7 | CCCCc1nc2c(N)nc3ccccc3c2n1CCOCCNC(=O)c1ccc(F)cc1 [Example 21] | 1 | 10 |  | 
8 | CCCCc1nc2c(N)nc3ccccc3c2n1CCOCCNC(=O)CCc1ccccc1 [Example 25] | 1 | 10 |  | 
9 | CCCCc1nc2c(N)nc3ccccc3c2n1CCOCCNC(=O)c1ccc(OC(F)(F)F)cc1 [Example 34] |  | 10 | * | 
10 | CCCCN(C(=O)CCCCOCCn1cnc2c(N)nc3ccccc3c21)c1ccccc1 [Example 13, 5-[2-(4-amino-1H-imidazo[4,5-c]quinolin-1-yl)ethoxy]-N-butyl-N-phenylpentanamide] | 10 |  |  | *
11 | CCC(COCCC1CCN(C(=O)c2cccc(C(F)(F)F)c2)CC1)n1cnc2c(N)nc3ccccc3c21 (stereo not drawn) [Example 50] | 1 | 1 |  | 
12 | Nc1nc2ccccc2c2c1ncn2CCOCCNC(=O)c1ccc(Cl)nc1 [Example 61] | 10 | 10 |  | 
13 | CCCCc1nc2c(N)nc3ccccc3c2n1CCOCCNC(=O)COCc1ccccc1 [Example 30] | 1 | 10 |  | 
14 | CCCCc1nc2c(N)nc3ccccc3c2n1CCOCCNC(=O)c1ccc(C#N)cc1 [Example 23] | 1 | 10 |  | 
15 | Nc1nc2ccccc2c2c1ncn2CCOCCNC(=O)CCc1ccccc1 [Example 58] | 10 | 10 |  | 
16 | CCCCc1nc2c(N)nc3ccccc3c2n1CCOCCNC(=O)C1CCCCC1 [Example 19] | 1 | 10 |  | 
17 | CCC(COCCC1CCN(C(=O)[C@@H]2C[C@H]2c2ccccc2)CC1)n1cnc2c(N)nc3ccccc3c21 (stereo partly drawn) [Example 47] | 1 |  |  | *
18 | CCC(COCCC1CCN(C(=O)c2ccc(OC)cc2)CC1)n1cnc2c(N)nc3ccccc3c21 (stereo not drawn) [Example 44] | 1 | 1 |  | 
19 | CCCCC(=O)NCCOCCn1cnc2c(N)nc3ccccc3c21 [Example 52] | 10 | 10 |  | 
20 | CCC(COCCC1CCN(C(=O)c2ccc3ccccc3c2)CC1)n1cnc2c(N)nc3ccccc3c21 (stereo not drawn) [Example 49] | 1 | 10 |  | 
21 | Nc1nc2ccccc2c2c1ncn2CCOCCNC(=O)c1cccc(C(F)(F)F)c1 [Example 64] | 10 |  |  | *
22 | Nc1nc2ccccc2c2c1ncn2CCOCCNC(=O)c1ccc(C(F)(F)F)cc1 [Example 65] |  |  | * | *
23 | CCCCc1nc2c(N)nc3ccccc3c2n1CCOCCNC(=O)c1ccc(OC)cc1 [Example 27] | 1 | 10 |  | 

Row | Compound | minimal effective concentration (interferon (α)) [µM] | minimal effective concentration [1] [µM] | Lowest Effective Concentration (μM) Interferon (interferon (α)) | Lowest Effective Concentration (μM) Tumor Necrosis Factor [1]
24 | CCC(COCCC1CCN(C(=O)COCc2ccccc2)CC1)n1cnc2c(N)nc3ccccc3c21 (stereo not drawn) [Example 48] | 0.1 | 10 |  | 
25 | CCCCc1nc2c(N)nc3ccccc3c2n1CCOCCNC(=O)C1CC1 [Example 15] | 0.1 | 1 |  | 
26 | Nc1nc2ccccc2c2c1ncn2CCOCCNC(=O)c1ccc(OC(F)(F)F)cc1 [Example 66] |  |  | * | *
27 | CCCCc1nc2c(N)nc3ccccc3c2n1CCOCCNC(=O)c1cccc2ccccc12 [Example 31] |  | 10 | * | 
28 | CCCCc1nc2c(N)nc3ccccc3c2n1CCOCCNC(=O)c1ccccc1 [Example 18] | 1 | 10 |  | 
29 | CCCCC(=O)N1CCC(CCOCC(CC)n2cnc3c(N)nc4ccccc4c32)CC1 (stereo not drawn) [Example 36] | 1 | 1 |  | 
30 | CCCCc1nc2c(N)nc3ccccc3c2n1CCOCCNC(=O)c1cccc(C#N)c1 [Example 24] | 1 | 10 |  | 
31 | CCCCc1nc2c(N)nc3ccccc3c2n1CCOCCNC(=O)c1ccc(C(F)(F)F)cc1 [Example 33] |  | 10 | * | 
32 | COc1cccc(C(=O)NCCOCCn2cnc3c(N)nc4ccccc4c32)c1 [Example 59] | 10 | 10 |  | 
33 | Nc1nc2ccccc2c2c1ncn2CCOCCNC(=O)c1ccc2ccccc2c1 [Example 63] |  | 10 | * | 
34 | CCC(COCCC1CCN(C(=O)c2cccnc2)CC1)n1cnc2c(N)nc3ccccc3c21 (stereo not drawn) [Example 46] | 0.1 | 1 |  | 
35 | CCCCc1nc2c(N)nc3ccccc3c2n1CCOCCNC(=O)C1CCCC1 [Example 17] | 1 | 1 |  | 
36 | CCC(COCCC1CCN(C(=O)c2ccccc2)CC1)n1cnc2c(N)nc3ccccc3c21 (stereo not drawn) [Example 38] | 1 | 10 |  | 
37 | CCC(COCCC1CCN(C(=O)C2CCCC2)CC1)n1cnc2c(N)nc3ccccc3c21 (stereo not drawn) [Example 37] | 1 | 1 |  | 
38 | CCC(COCCC1CCN(C(=O)c2ccc(F)cc2)CC1)n1cnc2c(N)nc3ccccc3c21 (stereo not drawn) [Example 40] | 1 | 1 |  | 
39 | Nc1nc2ccccc2c2c1ncn2CCOCCNC(=O)Cc1cccs1 [Example 56] | 1 | 10 |  | 
40 | CCCCc1nc2c(N)nc3ccccc3c2n1CCOCCNC(=O)Cc1cccs1 [Example 22] | 0.1 | 10 |  | 
41 | CCCCc1nc2c(N)nc3ccccc3c2n1CCOCCNC(=O)[C@@H]1C[C@H]1c1ccccc1 [Example 29] | 1 | 10 |  | 
42 | CCCCc1nc2c(N)nc3ccccc3c2n1CCOCCNC(=O)c1ccc(Cl)nc1 [Example 28] | 1 | 10 |  | 
43 | Nc1nc2ccccc2c2c1ncn2CCOCCNC(=O)COCc1ccccc1 [Example 62] | 1 | 10 |  | 
44 | CCC(COCCC1CCN(C(=O)Cc2cccs2)CC1)n1cnc2c(N)nc3ccccc3c21 (stereo not drawn) [Example 41] | 0.1 | 1 |  | 
45 | Nc1nc2ccccc2c2c1ncn2CCOCCNC(=O)Cc1ccccc1 [Example 55] | 1 | 10 |  | 
